From ChEMBL document CHEMBL1201862, “PubChem BioAssay data set” (2004)
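Grown in 96-well plates, cells were treated for 48 hours with each compound at five concentrations. Insufficient inhibition: endpoint recorded as highest concentration tested. GI50 = concentration required for 50% inhibition of growth.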 Active and inactive are the calls of the source. No stated cut-off is given here; in the data, active = GI50 up to about 1.1 µM and inactive = higher.

Legend:
Assay in all cases: growth of human tumour cells (NCI), 48 h
MDA-MB-231 = test system: MDA-MB-231
SF-539 = test system: SF-539
CAKI-1 = test system: CAKI-1
Malme-3M = test system: Malme-3M
RXF 393 = test system: RXF 393
KM12 = test system: KM12
HT-29 = test system: HT-29
SK-MEL-5 = test system: SK-MEL-5
TK-10 = test system: TK-10
Hs-578T = test system: Hs-578T
UACC-62 = test system: UACC-62
SK-MEL-2 = test system: SK-MEL-2
HOP-62 = test system: HOP-62
DU-145 = test system: DU-145
ACHN = test system: ACHN
OVCAR-3 = test system: OVCAR-3
A549 = test system: A549
NCI-H226 = test system: NCI-H226
T47D = test system: T47D
K562 = test system: K562
DMS-114 = test system: DMS-114
RPMI-8226 = test system: RPMI-8226
DMS-273 = test system: DMS-273
SNB-19 = test system: SNB-19
HL-60 = test system: HL-60
MDA-N = test system: MDA-N
CCRF-CEM = test system: CCRF-CEM
HOP-92 = test system: HOP-92
UO-31 = test system: UO-31
SN12C = test system: SN12C
SR = test system: SR
OVCAR-8 = test system: OVCAR-8
U-251 = test system: U-251
786-0 = test system: 786-0
KM-20L2 = test system: KM-20L2
HCT-116 = test system: HCT-116
SNB-75 = test system: SNB-75
IGROV-1 = test system: IGROV-1
SNB-78 = test system: SNB-78
M14 = test system: M14
SF-268 = test system: SF-268
MDA-MB-435 = test system: MDA-MB-435
HOP-18 = test system: HOP-18
HCT-15 = test system: HCT-15
HCC 2998 = test system: HCC 2998
XF498 = test system: XF498
SF-295 = test system: SF-295
DLD-1 = test system: DLD-1
NCI-H460 = test system: NCI-H460
M19-MEL = test system: M19-MEL
RXF 631 = test system: RXF 631
EKVX = test system: EKVX
BT-549 = test system: BT-549
COLO 205 = test system: COLO 205
SW-620 = test system: SW-620
PC-3 = test system: PC-3
OVCAR-4 = test system: OVCAR-4
MOLT-4 = test system: MOLT-4
OVCAR-5 = test system: OVCAR-5
LXFL 529 = test system: LXFL 529
A498 = test system: A498
SK-MEL-28 = test system: SK-MEL-28
LOX IMVI = test system: LOX IMVI
UACC-257 = test system: UACC-257
SK-OV-3 = test system: SK-OV-3
NCI-H23 = test system: NCI-H23
NCI-H522 = test system: NCI-H522

Measured: GI50

CCN(CC)CCNC(=O)c1nn(-c2ccc(Cl)cc2)c2c1CCc1cc(OC)ccc1-2
inactive: MDA-MB-231 12.1 µM | SF-539 4.21 µM | CAKI-1 8.41 µM | Malme-3M 1.6 µM | RXF 393 3.04 µM | KM12 6.53 µM | HT-29 2.64 µM | SK-MEL-5 1.74 µM | TK-10 11 µM | Hs-578T 3.26 µM | UACC-62 2.77 µM | SK-MEL-2 1.68 µM | HOP-62 13.3 µM | DU-145 15.3 µM | ACHN 11.4 µM | OVCAR-3 7.24 µM | A549 8.22 µM | NCI-H226 9.38 µM | T47D 4.3 µM | K562 2.77 µM | DMS-114 2.67 µM | RPMI-8226 2.9 µM | DMS-273 2.62 µM | SNB-19 10.5 µM | HL-60 2.7 µM | MDA-N 3.51 µM | CCRF-CEM 5.3 µM | HOP-92 5.51 µM | UO-31 2.49 µM | SN12C 10.4 µM | SR 4.28 µM | OVCAR-8 12.3 µM | U-251 5.43 µM | 786-0 3.52 µM | KM-20L2 1.64 µM | HCT-116 3.56 µM | SNB-75 5.21 µM | IGROV-1 12.8 µM | SNB-78 7.67 µM | M14 2.38 µM | SF-268 7.19 µM | MDA-MB-435 9.98 µM | HOP-18 15.2 µM | HCC 2998 2.34 µM | XF498 5.14 µM | SF-295 3.74 µM | DLD-1 3.54 µM | NCI-H460 4.51 µM | M19-MEL 2.7 µM | RXF 631 1.65 µM | EKVX 10.2 µM | BT-549 17.4 µM | COLO 205 2.26 µM | SW-620 3.26 µM | PC-3 12.6 µM | OVCAR-4 8.04 µM | MOLT-4 5.75 µM | OVCAR-5 4.75 µM | LXFL 529 4.74 µM | A498 8.61 µM | SK-MEL-28 2.03 µM | LOX IMVI 2.03 µM | UACC-257 1.82 µM | SK-OV-3 13.7 µM | NCI-H23 12.8 µM | NCI-H522 4.52 µM
2.92 µM: HCT-15

Cc1cccc2[s+]snc12
inactive: SF-539 > 100 µM | CAKI-1 > 78.2 µM | Malme-3M 30.5 µM | RXF 393 47.3 µM | KM12 > 100 µM | HT-29 > 100 µM | SK-MEL-5 > 100 µM | TK-10 > 100 µM | UACC-62 > 100 µM | SK-MEL-2 > 100 µM | HOP-62 > 100 µM | ACHN 63.5 µM | OVCAR-3 30.1 µM | A549 > 100 µM | NCI-H226 > 100 µM | K562 24.9 µM | DMS-114 > 58.5 µM | RPMI-8226 > 42.4 µM | DMS-273 > 100 µM | SNB-19 > 100 µM | HL-60 18 µM | CCRF-CEM 23.9 µM | HOP-92 23.1 µM | UO-31 > 100 µM | SN12C > 69.2 µM | SR 31.3 µM | OVCAR-8 > 45 µM | U-251 > 100 µM | 786-0 > 76.9 µM | KM-20L2 > 100 µM | HCT-116 > 59.4 µM | SNB-75 > 100 µM | IGROV-1 > 100 µM | SNB-78 > 100 µM | M14 > 68.5 µM | SF-268 > 100 µM | HOP-18 > 100 µM | HCC 2998 > 100 µM | XF498 > 100 µM | SF-295 > 100 µM | DLD-1 26.7 µM | NCI-H460 > 100 µM | M19-MEL > 60.3 µM | RXF 631 19.7 µM | EKVX > 51.3 µM | COLO 205 23.9 µM | SW-620 24.2 µM | OVCAR-4 > 100 µM | MOLT-4 25.8 µM | OVCAR-5 > 100 µM | LXFL 529 36.1 µM | A498 > 100 µM | SK-MEL-28 > 47.5 µM | LOX IMVI 49.5 µM | UACC-257 > 76.9 µM | SK-OV-3 > 100 µM | NCI-H23 > 96.6 µM | NCI-H522 18.4 µM
> 47.4 µM: HCT-15
